Test results: paper PMC10426190 (Breast Cancer Research : BCR, 2023)

What was measured:
ERα Y537S mutant = biological target: T1, ERα Y537S mutant (Homo sapiens, UniProt P03372, Y537S); experiment: ERα degradation assay, In-Cell Western, MCF-7 Y537S; assay type: cell-based; conditions: 24 h
T1 construct: MCF-7 wild type and Y537S mutant cells were seeded; host or cells: MCF7 expressing ER Y537S
T1 sequence (P03372 1-595 Y537S): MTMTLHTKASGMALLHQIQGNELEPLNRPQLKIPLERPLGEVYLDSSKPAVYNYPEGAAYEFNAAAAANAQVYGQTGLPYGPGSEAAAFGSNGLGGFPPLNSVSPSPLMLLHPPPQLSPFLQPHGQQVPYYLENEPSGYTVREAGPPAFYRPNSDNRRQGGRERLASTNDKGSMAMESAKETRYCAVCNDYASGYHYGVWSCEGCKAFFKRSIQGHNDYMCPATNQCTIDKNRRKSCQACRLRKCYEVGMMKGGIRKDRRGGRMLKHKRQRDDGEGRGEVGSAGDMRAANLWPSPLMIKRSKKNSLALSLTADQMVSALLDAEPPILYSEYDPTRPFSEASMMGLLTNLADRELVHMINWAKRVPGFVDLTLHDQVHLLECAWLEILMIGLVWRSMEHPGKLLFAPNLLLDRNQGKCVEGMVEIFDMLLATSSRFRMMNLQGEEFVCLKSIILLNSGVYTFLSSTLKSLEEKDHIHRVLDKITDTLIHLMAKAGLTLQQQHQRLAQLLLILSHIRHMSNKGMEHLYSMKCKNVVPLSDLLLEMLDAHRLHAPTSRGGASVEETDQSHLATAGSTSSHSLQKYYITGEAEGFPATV
Procedure: MCF-7 wild type and Y537S mutant cells were seeded at a density of 5000 cells per well into flat clear bottom tissue cultured-treated 384-well plates (Greiner) in culture media and after overnight incubation cells were treated with compounds for 24 h. Then plates were fixed with 4% formaldehyde, permeabilized with ice-cold methanol, and blocked with Odyssey Blocking Buffer (LI-COR). The fixed cells were incubated with rabbit anti- ERα antibody (CST#8644S) and mouse anti-GAPDH antibody (Abcam #ab8245), washed and stained with IRDye 800 Goat anti-Rabbit IgG (Licor#926-32211) and IRDye 680 Goat anti-Mouse IgG (Licor#926-68070). ERα levels were quantitated using Sapphire RGBNIR (Azure), the acumen eX3 imaging system. […] IC50 and Emax were analyzed with IDBS XLfit.

MCF-7 WT cells = experiment: Viability assay (CellTiter-Glo, 7 days), MCF-7 WT; assay type: cell-based, human
Procedure: (§1) Trypsinized cells were dispensed into 384-well plates in culture media and after overnight incubation cells were treated with compounds for 7 days. Cell viability was assessed using CellTiter-Glo (Promega) according to the manufacturer’s protocol and relative luminescence units (RLU) were measured using an Envision Multilabel Reader (Perkin Elmer). […] IC50 and Imax were analyzed with IDBS XLfit.
(§2) Statistical and graphical presentations were performed using IDBS XLfit and GraphPad Prism 9. For cell proliferation assays, the IC50 was calculated by fitting a dose–response curve using a nonlinear regression model with a log(inhibitor) vs response curve fit. […] P-values < 0.05 were considered statistically significant.

MCF-7 Y537S cells = experiment: Viability assay (CellTiter-Glo, 7 days), MCF-7 Y537S; assay type: cell-based, human
Procedure: as §1, §2

[1] = tested on: GREB1, AGR3 transcription in T47D, EFM-19, HCC1500; experiment: ER pathway activity, RT-QPCR of GREB1 and AGR3; assay type: cell-based, human; conditions: 1 μM, 1 nM E2, 24 h
Procedure: HCC1500, T47D, and EFM-19 were cultured in hormone deprivation media with 10% charcoal-stripped FBS for at least 3 days before assay. Trypsinized cells were seeded in a 12-well plate, stimulated with 1 nM E2, and treated with/without 1 μM compounds for 24 h. Total RNA was extracted using QIAGEN RNeasy Plus Mini Kit (Qiagen), according to the manufacturer’s protocol. The concentration of RNA samples was determined using NanoDrop 8000 (Thermo Scientific). SYBR Green expression assay (Qiagen#204154) was used to quantify GREB1 (Forward primer: […]; reverse primer: […]), AGR3 (Forward primer: […]; reverse primer: […]) and the house-keeping genes actin (OriGene#HP204660). The relative quantities were determined using ΔΔ threshold cycle (ΔΔCt), according to the manufacturer’s instructions (Applied Biosystems).
MCF7 with hormone-deprived pre-treatment were administrated ER ligands or not present with 1 nM E2 stimulation for 24 h incubation in a 12-well plate. Total mRNA was isolated from treated cells and sequenced on an Illumina HiSeq X Ten platform. FPKM of each gene was calculated using Cufflinks and Differential expression genes analysis by using the DESeq (2012) R package. Four separate clusters were obtained. […] Endometrial height was assessed from the basement membrane to the luminal border (scale bar in green lines: 200 μm), Arrows indicate the uterine epithelium (e).

T47D subcutaneous tumors = experiment: T47D subcutaneous xenograft mouse model; assay type: in vivo; conditions: T47D sc, 250 mg/kg subcutaneous once a week
Procedure: Female Balb/c nude mice were used for MCF-7 and T47D tumor subcutaneous xenograft studies. At least one day before tumor cell implantation, estrogen pellets (0.18 mg, 17β-Estradiol, 60-day release, Innovative Research of America, Sarasota, FL, USA) were implanted subcutaneously. Each mouse was subcutaneously injected with 1 × 10^7 MCF-7 (ECACC) or T47D cells in the right flank, and tumor growth was monitored. The long diameter (a) and the short diameter (b) of the tumor were measured using a caliper, and the tumor volume was calculated using the following formula: V = 0.5 × a × b^2. […] Tumor volumes were evaluated twice per week. Treatment tolerability was assessed by body weight measurements and frequent observation for clinical signs of treatment-related adverse effects.
as §2

[2] = tested on: intracranial MCF-7 tumors; experiment: Intracranial MCF-7 tumor model; assay type: in vivo, mouse
Procedure: Female NPG mice were used for the intracranial MCF-7 tumor model. Three days before tumor cell implantation, estrogen pellets (0.72 mg, 17β-Estradiol, 60-day release, Innovative Research of America, Sarasota, FL, USA) were implanted subcutaneously. Each mouse was intracranially injected with 2 × 10^6 MCF-7 (ATCC) cells. […] Survival of mice was evaluated until Day 60. Mice were euthanized with weight loss exceeding 20% or moribund. On Day 60, all the mice remaining alive were euthanized. Before euthanasia, the mice were perfused with 4% paraformaldehyde and the brain tissues were collected for H&E staining using A[…] (Leica, Wetzlar, Germany).
as §2

[3] = tested on: advanced HR + /HER2- breast cancer; conditions: cited from earlier work

Row | Compound | ERα degradation assay Dmax [% Ful.] (ERα Y537S mutant) | ERα degradation assay Dmax [% Veh.] (ERα Y537S mutant) | Viability assay Emax [% Ful.] (MCF-7 WT cells) | Viability assay Emax [% Veh.] (MCF-7 WT cells) | IC50 (MCF-7 WT cells; Homo sapiens, MCF7, 168 h) [nM] | Viability assay Emax [% Ful.] (MCF-7 Y537S cells) | Viability assay Emax [% Veh.] (MCF-7 Y537S cells) | IC50 (MCF-7 Y537S cells; Homo sapiens, MCF7, 168 h) [nM] | AGR3 and GREB1 transcription ([1]; T47D, EFM-19, and HCC1500) | TGI (T47D subcutaneous tumors) [%] | median survival time ([2]; 250 mg/kg subcutaneous once a week) [days] | tumor cell infiltration in brain tissues (H&E) ([2]; Fulvestrant 250 mg/kg, SCR-6852 3 mg/kg) | median OS [3] [months] | PFS ([3]; progressed on prior ET ref 45) [months] | AGR3 transcription ([1]; EFM-19 and HCC1500)
1 | C[C@]12CC[C@@H]3c4ccc(O)cc4C[C@@H](CCCCCCCCC[S+]([O-])CCCC(F)(F)C(F)(F)F)[C@H]3[C@@H]1CC[C@@H]2O (stereo partly drawn) [Fulvestrant] | 87.09 | 26.38 | 97.88 | 49.60 | 0.4 | 95.49 | 65.05 | 16.3 | significantly downregulated | 48.35 | 27 | significant tumor cells infiltration | 29.7 | 4.6 | –
2 | CC/C(=C(\c1ccc(O)cc1)c1ccc(OCCN(C)C)cc1)c1ccccc1 [4-OH-tamoxifen] | – | – | – | – | – | – | – | – | – | – | – | – | – | – | significant increase
